Literature values in PubChem BioAssay AID1259409 (Chemical Carcinogenesis Research Information System (CCRIS), 2018).

System: rodent chemically induced tumor inhibition, incidence and multiplicity
Assay: CCRIS tumor inhibitor studies

SMILES: S=C=Nc1cccc2ccccc12
- tumour outcome (control, treated, inhibition, significance) (Carcinogen: 2-AMINO-3-METHYLIMIDAZO[4,5-B]PYRIDINE (PHIP) [105650-23-5), Dose [Inhibitor]: DIET, Route [Inhibitor]: 400 PPM ADMINISTERED FROM 42 TO 66 D OF AGE, Species: RAT, Strain/Sex: SPRAGUE-DAWLEY/FEMALE, Target Tissue: Type of Lesion: MAMMARY, CARCINOMA, Dose [Carcinogen]: 85 MG/KG BW 8 TIMES OVER 11 D, STARTING 1 WK AFTER ANIT FEEDING (STUDY DURATION: 24 WKS)): 56.3%, 6.7%, 88.1%, p<0.001

SMILES: Nc1ncn[nH]1
- tumour outcome (control, treated, inhibition, significance) (Carcinogen: DIETHYLSTILBESTROL, 56-53-1, Dose [Inhibitor]: 0, 1500 PPM IN DRINKING WATER 47 D POST FIRST DOSE OF CARCINOGEN (STUDY DURATION: 6 MO), Route [Inhibitor]: ORAL, Species: RAT, Strain/Sex: WF/MALE, Target Tissue: Type of Lesion: LIVER: HEPATOCELLULAR CARCINOMA, Dose [Carcinogen]: 5 MG ONTO BACK 1/2 MO FOR 6 MO, Promoter: NONE USED): 1/9 (11%), 0/11 (0%), 100%, not calculated
- tumour outcome (control, treated, inhibition, significance) (Carcinogen: DIETHYLSTILBESTROL, 56-53-1, Dose [Inhibitor]: 0, 1500 PPM IN DRINKING WATER 47 D POST FIRST DOSE OF CARCINOGEN (STUDY DURATION: 6 MO), Route [Inhibitor]: ORAL, Species: RAT, Strain/Sex: WF/MALE, Target Tissue: Type of Lesion: PITUITARY: TUMOR, Dose [Carcinogen]: 5 MG ONTO BACK 1/2 MO FOR 6 MO, Promoter: NONE USED): 7/9 (78%), 8/11 (73%), 6%, not significant

SMILES: CC(O)CCC(=O)c1cccs1 (configuration not stated)
- tumour outcome (control, treated, inhibition, significance) (Carcinogen: 4-(METHYLNITROSAMINO)-1-(3-PYRIDYL)-1-BUTANONE, 64091-91-4, Dose [Inhibitor]: 0, 25 UMOL IN 0.1 ML CORN OIL ONCE 2 HR PRIOR TO CARCINOGEN DOSE (STUDY DURATION: 16 WK), Route [Inhibitor]: GAVAGE, Species: MOUSE, Strain/Sex: STRAIN-A/FEMALE, Target Tissue: Type of Lesion: LUNG: ADENOMA, Dose [Carcinogen]: 10 UMOL IN 0.1 ML SALINE ONCE, Promoter: NONE USED): 100%, 100%, 0%, not significant

SMILES: Cc1c[nH]c(=O)[nH]c1=O
- tumour outcome (control, treated, inhibition, significance) (Carcinogen: 7,12-DIMETHYLBENZ[A]ANTHRACENE, 57-97-6, Dose [Inhibitor]: 1% IN 20% PROTEIN DIET AND 0.5% IN DRINKING WATER (STUDY DURATION: 150 D), Route [Inhibitor]: ORAL, Species: RAT, Strain/Sex: STRAIN-CB/FEMALE, Target Tissue: Type of Lesion: MAMMARY GLAND: TUMOR, Dose [Carcinogen]: 15 MG IN 1 ML ARACHIS OIL TWICE 14 D APART, Promoter: NONE USED): 11/11 (100%), 6/11 (55%), 45%, not calculated
- tumour outcome (control, treated, inhibition, significance) (Carcinogen: 7,12-DIMETHYLBENZ[A]ANTHRACENE, 57-97-6, Dose [Inhibitor]: 1.5% IN 20% PROTEIN DIET (STUDY DURATION: 100 D), Route [Inhibitor]: ORAL, Species: RAT, Strain/Sex: STRAIN-CB/FEMALE, Target Tissue: Type of Lesion: MAMMARY GLAND: TUMOR, Dose [Carcinogen]: 15 MG IN 1 ML ARACHIS OIL THREE DOSES GIVEN 1/2 WK, Promoter: NONE USED): 18/18 (100%), 16/20 (80%), 20%, not calculated
- tumour outcome (control, treated, inhibition, significance) (Carcinogen: NONE USED, Dose [Inhibitor]: 0.4% IN DRINKING WATER, STARTING AT 7-9 WK OF AGE AND CONTINUING FOR DURATION OF STUDY (STUDY DURATION: 10-12 MO), Route [Inhibitor]: ORAL, Species: MOUSE, Strain/Sex: STRAIN-A/MALE, FEMALE, Target Tissue: Type of Lesion: LUNG: ADENOMA, Promoter: NONE USED): 48%, 17%, 65%, p 0.02

SMILES: C/C=C/S/C=C/C
- tumour outcome (control, treated, inhibition, significance) (Carcinogen: 7,12-DIMETHYLBENZ[A]ANTHRACENE, 57-97-6, Dose [Inhibitor]: 0, 1 MG IN 0.2 ML ACETONE APPLIED 30 MIN AFTER EACH MEZEREIN DOSE (STUDY DURATION: 20 WK), Route [Inhibitor]: DERMAL, Species: MOUSE, Strain/Sex: SENCAR/FEMALE, Target Tissue: Type of Lesion: SKIN: PAPILLOMA, Dose [Carcinogen]: 0.1 UMOL IN 0.2 ML ACETONE ONCE, Promoter: TPA, 16561-29-8, MEZEREIN, 37807-41-5, Promoter: TPA, 16561-29-8, MEZEREIN, 37807-41-5): 100%, 86%, 14%, p<0.005
- tumour outcome (control, treated, inhibition, significance) (Carcinogen: 7,12-DIMETHYLBENZ[A]ANTHRACENE, 57-97-6, Dose [Inhibitor]: 0, 1 MG IN 0.2 ML ACETONE APPLIED 30 MIN AFTER EACH TPA DOSE (STUDY DURATION: 20 WK), Route [Inhibitor]: DERMAL, Species: MOUSE, Strain/Sex: SENCAR/FEMALE, Target Tissue: Type of Lesion: SKIN: PAPILLOMA, Dose [Carcinogen]: 0.1 UMOL IN 0.2 ML ACETONE ONCE, Promoter: TPA, 16561-29-8, MEZEREIN, 37807-41-5, Promoter: TPA, 16561-29-8, MEZEREIN, 37807-41-5): 100%, 91%, 9%, p<0.005

SMILES: CCCCCCCCCCCCC/C=C/[C@@H](O)[C@@H](N)CO
- tumour outcome (control, treated, inhibition, significance) (Carcinogen: 7,12-DIMETHYLBENZ[A]ANTHRACENE, 57-97-6, Dose [Inhibitor]: 0, 0.01 UMOL IN 0.2 ML ACETONE 2/WK FOR 15 WK APPLIED 30 MIN PRIOR TO EACH PROMOTER DOSE (STUDY DURATION: 50 WK), Route [Inhibitor]: DERMAL, Species: MOUSE, Strain/Sex: SENCAR/FEMALE, Target Tissue: Type of Lesion: SKIN: CARCINOMA, Dose [Carcinogen]: 10 NMOL ONCE, Promoter: 12-O-TETRADECANOYLPHORBOL-13-ACETATE, 16561-29-8): 87%, 77%, 11%, not significant
- tumour outcome (control, treated, inhibition, significance) (Carcinogen: 7,12-DIMETHYLBENZ[A]ANTHRACENE, 57-97-6, Dose [Inhibitor]: 0, 0.01 UMOL IN 0.2 ML ACETONE 2/WK FOR 15 WK APPLIED 30 MIN PRIOR TO EACH PROMOTER DOSE (STUDY DURATION: 50 WK), Route [Inhibitor]: DERMAL, Species: MOUSE, Strain/Sex: SENCAR/FEMALE, Target Tissue: Type of Lesion: SKIN: PAPILLOMA, Dose [Carcinogen]: 10 NMOL ONCE, Promoter: 12-O-TETRADECANOYLPHORBOL-13-ACETATE, 16561-29-8): 94%, 88%, 6%, not significant
- tumour outcome (control, treated, inhibition, significance) (Carcinogen: 7,12-DIMETHYLBENZ[A]ANTHRACENE, 57-97-6, Dose [Inhibitor]: 0, 0.05 UMOL IN 0.2 ML ACETONE 2/WK FOR 15 WK APPLIED 30 MIN PRIOR TO EACH PROMOTER DOSE (STUDY DURATION: 50 WK), Route [Inhibitor]: DERMAL, Species: MOUSE, Strain/Sex: SENCAR/FEMALE, Target Tissue: Type of Lesion: SKIN: CARCINOMA, Dose [Carcinogen]: 10 NMOL ONCE, Promoter: 12-O-TETRADECANOYLPHORBOL-13-ACETATE, 16561-29-8): 87%, 82%, 6%, not significant
- tumour outcome (control, treated, inhibition, significance) (Carcinogen: 7,12-DIMETHYLBENZ[A]ANTHRACENE, 57-97-6, Dose [Inhibitor]: 0, 0.05 UMOL IN 0.2 ML ACETONE 2/WK FOR 15 WK APPLIED 30 MIN PRIOR TO EACH PROMOTER DOSE (STUDY DURATION: 50 WK), Route [Inhibitor]: DERMAL, Species: MOUSE, Strain/Sex: SENCAR/FEMALE, Target Tissue: Type of Lesion: SKIN: PAPILLOMA, Dose [Carcinogen]: 10 NMOL ONCE, Promoter: 12-O-TETRADECANOYLPHORBOL-13-ACETATE, 16561-29-8): 94%, 91%, 3%, not significant
- tumour outcome (control, treated, inhibition, significance) (Carcinogen: 7,12-DIMETHYLBENZ[A]ANTHRACENE, 57-97-6, Dose [Inhibitor]: 0, 0.5 UMOL IN 0.2 ML ACETONE 2/WK FOR 15 WK APPLIED 30 MIN PRIOR TO EACH PROMOTER DOSE (STUDY DURATION: 50 WK), Route [Inhibitor]: DERMAL, Species: MOUSE, Strain/Sex: SENCAR/FEMALE, Target Tissue: Type of Lesion: SKIN: CARCINOMA, Dose [Carcinogen]: 10 NMOL ONCE, Promoter: 12-O-TETRADECANOYLPHORBOL-13-ACETATE, 16561-29-8): 87%, 84%, 3%, not significant
- tumour outcome (control, treated, inhibition, significance) (Carcinogen: 7,12-DIMETHYLBENZ[A]ANTHRACENE, 57-97-6, Dose [Inhibitor]: 0, 0.5 UMOL IN 0.2 ML ACETONE 2/WK FOR 15 WK APPLIED 30 MIN PRIOR TO EACH PROMOTER DOSE (STUDY DURATION: 50 WK), Route [Inhibitor]: DERMAL, Species: MOUSE, Strain/Sex: SENCAR/FEMALE, Target Tissue: Type of Lesion: SKIN: PAPILLOMA, Dose [Carcinogen]: 10 NMOL ONCE, Promoter: 12-O-TETRADECANOYLPHORBOL-13-ACETATE, 16561-29-8): 94%, 85%, 10%, not significant
- tumour outcome (control, treated, inhibition, significance) (Carcinogen: 7,12-DIMETHYLBENZ[A]ANTHRACENE, 57-97-6, Dose [Inhibitor]: 0, 10 UMOL IN 0.2 ML ACETONE 2/WK FOR 20 WK APPLIED 30 MIN PRIOR TO EACH PROMOTER DOSE (STUDY DURATION: 50 WK), Route [Inhibitor]: DERMAL, Species: MOUSE, Strain/Sex: SENCAR/FEMALE, Target Tissue: Type of Lesion: SKIN: CARCINOMA, Dose [Carcinogen]: 10 NMOL ONCE, Promoter: 12-O-TETRADECANOYLPHORBOL-13-ACETATE, 16561-29-8): 47%, 56%, -19%, not significant
- tumour outcome (control, treated, inhibition, significance) (Carcinogen: 7,12-DIMETHYLBENZ[A]ANTHRACENE, 57-97-6, Dose [Inhibitor]: 0, 10 UMOL IN 0.2 ML ACETONE 2/WK FOR 20 WK APPLIED 30 MIN PRIOR TO EACH PROMOTER DOSE (STUDY DURATION: 50 WK), Route [Inhibitor]: DERMAL, Species: MOUSE, Strain/Sex: SENCAR/FEMALE, Target Tissue: Type of Lesion: SKIN: PAPILLOMA, Dose [Carcinogen]: 10 NMOL ONCE, Promoter: 12-O-TETRADECANOYLPHORBOL-13-ACETATE, 16561-29-8): 93%, 96%, -3%, not significant
